Paper PMC6173055, “Structure and function of a glycoside hydrolase family 8 endoxylanase from Teredinibacter turnerae” (Acta Crystallographica. Section D, Structural Biology, 2018)

Target: T1, TtGH8 (Teredinibacter turnerae, UniProt C5BJ89)
T1 construct: gene TERTU_4506; catalytic domain, residues 41-436; signal peptide and linker removed; N-terminal His6 tag cut off with 3C protease; codon-optimised, expressed in E. coli BL21
Experiment: thermal shift (SYPRO Orange)
Assay type: binding
Details: 10 mM ligand

T1 sequence (C5BJ89 entry or part of it): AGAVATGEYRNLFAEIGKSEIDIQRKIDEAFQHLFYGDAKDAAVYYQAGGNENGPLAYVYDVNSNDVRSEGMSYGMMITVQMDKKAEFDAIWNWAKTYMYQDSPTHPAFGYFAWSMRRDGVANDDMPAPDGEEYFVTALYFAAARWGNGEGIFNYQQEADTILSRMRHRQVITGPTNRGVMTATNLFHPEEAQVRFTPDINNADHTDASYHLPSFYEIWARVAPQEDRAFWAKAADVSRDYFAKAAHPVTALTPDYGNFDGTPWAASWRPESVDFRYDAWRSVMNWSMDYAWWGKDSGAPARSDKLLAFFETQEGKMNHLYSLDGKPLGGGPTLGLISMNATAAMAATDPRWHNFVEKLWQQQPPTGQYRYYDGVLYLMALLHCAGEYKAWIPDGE

`OC1OC[C@@H](O[C@@H]2OC[C@@H](O[C@@H]3OC[C@@H](O[C@@H]4OC[C@@H](O[C@@H]5OC[C@@H](O[C@@H]6OC[C@@H](O)[C@H](O)[C@H]6O)[C@H](O)[C@H]5O)[C@H](O)[C@H]4O)[C@H](O)[C@H]3O)[C@H](O)[C@H]2O)[C@H](O)[C@H]1O` (stereo partly shown) [X6, xylohexaose] was tested, and the “increase in melting temperature” value was 2.9 °C.
